In the NIST ThermoML archive (doi:10.1021/je9008014):

Test: xn = mol fraction of the nth substance listed
Settings: 101 kPa, Liquid; for mass density: Pycnometric method

CCOCCOCCOCCO [2-(2-(2-ethoxyethoxy)ethoxy)ethanol] + O
Settings | mass density [kg/m3] | viscosity [mPa·s]
293.15 K, x1 = 0.01119 | 1006.9 | 1.484
293.15 K, x1 = 0.02492 | 1016.6 | 2.221
293.15 K, x1 = 0.04128 | 1026.2 | 3.256
293.15 K, x1 = 0.06284 | 1035.1 | 4.832
293.15 K, x1 = 0.09179 | 1040.8 | 6.993
293.15 K, x1 = 0.1317 | 1042.7 | 9.102
293.15 K, x1 = 0.1905 | 1042.2 | 10.54
293.15 K, x1 = 0.2885 | 1038.7 | 11.29
293.15 K, x1 = 0.4019 | 1033.6 | 11.34
293.15 K, x1 = 0.4747 | 1031.1 | 10.93
293.15 K, x1 = 0.6076 | 1027.3 | 10.06
293.15 K, x1 = 0.7399 | 1024.4 | 9.168
293.15 K, x1 = 0.8176 | 1022.9 | 8.738
293.15 K, x1 = 0.8956 | 1021.8 | 8.353
293.15 K, x1 = 1 | 1020.6 | 7.796
298.15 K, x1 = 1 | 1016.3 | 6.739
303.15 K, x1 = 0.01119 | 1003.7 | 1.129
303.15 K, x1 = 0.02492 | 1012.6 | 1.595
303.15 K, x1 = 0.04128 | 1020.7 | 2.344
303.15 K, x1 = 0.06284 | 1028.7 | 3.349
303.15 K, x1 = 0.09179 | 1032.8 | 4.589
303.15 K, x1 = 0.1317 | 1034.9 | 5.955
303.15 K, x1 = 0.1905 | 1033.9 | 7.032
303.15 K, x1 = 0.2885 | 1029.8 | 7.522
303.15 K, x1 = 0.4019 | 1024.9 | 7.547
303.15 K, x1 = 0.4747 | 1022.3 | 7.378
303.15 K, x1 = 0.6076 | 1018.5 | 6.868
303.15 K, x1 = 0.7399 | 1015.5 | 6.386
303.15 K, x1 = 0.8176 | 1014.1 | 6.178
303.15 K, x1 = 0.8956 | 1013.1 | 5.884
303.15 K, x1 = 1 | 1011.9 | 5.657
308.15 K, x1 = 1 | 1008.1 | –
313.15 K, x1 = 0.01119 | 999.7 | 0.9341
313.15 K, x1 = 0.02492 | 1007.5 | 1.261
313.15 K, x1 = 0.04128 | 1014.8 | 1.747
313.15 K, x1 = 0.06284 | 1021.8 | 2.429
313.15 K, x1 = 0.09179 | 1025.3 | 3.265
313.15 K, x1 = 0.1317 | 1026.5 | 4.072
313.15 K, x1 = 0.1905 | 1025.5 | 4.899
313.15 K, x1 = 0.2885 | 1021.4 | 5.382
313.15 K, x1 = 0.4019 | 1016.5 | 5.391
313.15 K, x1 = 0.4747 | 1013.9 | 5.226
313.15 K, x1 = 0.6076 | 1010.2 | 4.953
313.15 K, x1 = 0.7399 | 1007.4 | 4.586
313.15 K, x1 = 0.8176 | 1006.1 | 4.457
313.15 K, x1 = 0.8956 | 1005.1 | 4.315
313.15 K, x1 = 1 | 1003.9 | 4.185
323.15 K, x1 = 0.01119 | 995.1 | 0.7411
323.15 K, x1 = 0.02492 | 1002.1 | 1.013
323.15 K, x1 = 0.04128 | 1008.7 | 1.369
323.15 K, x1 = 0.06284 | 1014.4 | 1.859
323.15 K, x1 = 0.09179 | 1017.4 | 2.436
323.15 K, x1 = 0.1317 | 1018.1 | 3.015
323.15 K, x1 = 0.1905 | 1016.8 | 3.558
323.15 K, x1 = 0.2885 | 1012.7 | 3.942
323.15 K, x1 = 0.4019 | 1007.7 | 3.965
323.15 K, x1 = 0.4747 | 1005.2 | 3.885
323.15 K, x1 = 0.6076 | 1001.6 | 3.735
323.15 K, x1 = 0.7399 | 998.8 | 3.552
323.15 K, x1 = 0.8176 | 997.6 | 3.509
323.15 K, x1 = 0.8956 | 996.6 | 3.437
323.15 K, x1 = 1 | 995.5 | 3.326
333.15 K, x1 = 0.01119 | 989.6 | 0.6117
333.15 K, x1 = 0.02492 | 995.7 | 0.8193
333.15 K, x1 = 0.04128 | 1001.9 | 1.092
333.15 K, x1 = 0.06284 | 1006.2 | 1.433
333.15 K, x1 = 0.09179 | 1008.5 | 1.853
333.15 K, x1 = 0.1317 | 1008.7 | 2.252
333.15 K, x1 = 0.1905 | 1007.3 | 2.652
333.15 K, x1 = 0.2885 | 1003.1 | 2.923
333.15 K, x1 = 0.4019 | 998.5 | 3.006
333.15 K, x1 = 0.4747 | 996.1 | 2.953
333.15 K, x1 = 0.6076 | 992.5 | 2.879
333.15 K, x1 = 0.7399 | 989.8 | 2.774
333.15 K, x1 = 0.8176 | 988.6 | 2.728
333.15 K, x1 = 0.8956 | 987.7 | 2.697
333.15 K, x1 = 1 | 986.7 | 2.627
